28 molecules from patent US8138205B2, “Heteroarylalkoxy-substituted quinolone inhibitors of PDE4” (Kalypsys, Inc., priority 2006, dated 2012) can be followed below.

One series can be described thus: Solubility Protocol. It is filed as physicochemical. The settings on record: aqueous buffer, thermodynamic from solid; pH 7.4, 0.1 M sodium phosphate buffer. How it is done:
About 5 mg of a compound was mixed with 500 μL of pH 7.4, 0.1 M sodium phosphate buffer. The mixture was adjusted to the original pH of 7.4 and then mixed overnight or longer via rotary mixing. The sample was checked for pH and then filtered through a 0.45 μm filter. If the pH drifted away, the sample was adjusted to its original pH and mixed for at least 15 minutes before filtration. The filtrate was analyzed using HPLC.

The target of another series is T1, PDE4B (Homo sapiens, UniProt Q07343).
T1 construct: hex-histidine (His6) (N); made in house
Put plainly: PDE/AK Biological Activity Assay (coupled PDE/adenylate kinase bioluminescent assay). It is filed as biochemical. The settings on record: catalytic domain of PDE4B, read-out: PDE4 Enzyme IC50. The source says: Phosphodiesterases regulate the activity of the second messenger cyclic adenosine monophosphate (cAMP) by hydrolyzing cAMP to adenosine monophosphate (AMP). We developed a coupled PDE/AK bioluminescent high-throughput assay to measure the activity of phosphodiesterases. In the PDE/AK assay, the AMP produced from the hydrolysis of cAMP by phosphodiesterase is converted to adenosine diphosphate (ADP) by the phosphotransferase activity of adenylate kinase (also known as ADK or myokinase). Adenylate kinase will catalyze the conversion of 1 mole of AMP and 1 mole of ATP into 2 moles of ADP. Thus the conversion of AMP to ADP will result in the subsequent loss of ATP. The decrease in ATP concentration can be monitored as light output using luciferase in a reaction that requires ATP to produce light. The PDE/AK assay uses luciferase, which catalyzes the production of light from ATP present in the reaction mix. The amount of emitted light is inversely proportional to the level of AMP present in the reaction. Test compounds are incubated with the phosphodiesterases and phosphodiesterase inhibitors will decrease the rate of cAMP hydrolysis and decrease the subsequent production of AMP. Thus phosphodiesterase inhibitors will decrease the conversion of ATP to ADP and result in the greatest emission of light.
Compounds may be screened for functional potency in in vitro biochemical assays for their ability to inhibit the activity of phosphodiesterase (PDE) enzymes. A coupled PDE/AK assay was utilized to measure the inhibitory activity of compounds on PDE isoforms. The catalytic domain of PDE4B was fused to an amino-terminus hex-histidine affinity tag and purified. PDE4B enzyme was incubated with compounds for 10 minutes. Cyclic AMP substrate, ATP and adenylate kinase were then added to the PDE enzyme mix and incubated for 45 minutes at room temperature. A commercial ATP detection assay, Perkin Elmer's easyLite ATP detection reagent, was then added to measure the relative amount of ATP present in the reaction. After 10 minute incubation, the luminescent signal was quantitated with either the Perkin Elmer Viewlux or Molecular Devices Acquest or Analyst. Roflumilast and Rolipram are the positive controls used in the assay.

T1 sequence (Q07343 330-659 limits assumed, species assumed): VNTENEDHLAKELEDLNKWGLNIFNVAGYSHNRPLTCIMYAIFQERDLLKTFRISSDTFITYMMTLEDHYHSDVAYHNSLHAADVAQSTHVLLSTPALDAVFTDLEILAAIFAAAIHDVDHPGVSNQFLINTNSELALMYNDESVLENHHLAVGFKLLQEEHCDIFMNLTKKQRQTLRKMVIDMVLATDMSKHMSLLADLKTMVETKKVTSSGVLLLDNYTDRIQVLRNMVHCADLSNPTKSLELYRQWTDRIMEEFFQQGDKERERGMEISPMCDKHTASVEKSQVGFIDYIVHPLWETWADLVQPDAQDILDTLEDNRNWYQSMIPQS

By solubility is commonly meant the dissolved amount per volume that the medium holds. Low values mean a poorly soluble substance, high ones a readily soluble substance. The term IC50 denotes the midpoint of a concentration-inhibition curve. In “Solubility Protocol”, `COc1ccc2c(Nc3c(Cl)cncc3Cl)cc(=O)[nH]c2c1OCCCCCCN` [Example 28, 8-(6-Aminohexyloxy)-4-(3,5-dichloropyridin-4-ylamino)-7-methoxyquinolin-2(1H)-one] returned a solubility of no less than 1000 µg/mL. Besides, the IC50 at PDE4B is less than 1000 nM.

In “Solubility Protocol”, `COc1ccc2c(Nc3c(Cl)cncc3Cl)cc(=O)[nH]c2c1OCCCCC(=O)N[C@@H](CO)C(=O)O` [Example 64, (S)-2-(5-(4-(3,5-dichloropyridin-4-ylamino)-7-methoxy-2-oxo-1,2-dihydroquinolin-8-yloxy)pentanamido)-3-hydroxypropanoic acid] yielded a solubility of no less than 1000 µg/mL. For the same molecule, the IC50 at PDE4B is less than 1000 nM.

For the molecule `COc1ccc2c(Nc3c(C)cncc3C)cc(=O)[nH]c2c1OCCCCCO` [Example 83, 4-(3,5-dimethylpyridin-4-ylamino)-8-(5-hydroxypentyloxy)-7-methoxyquinolin-2(1H)-one], at PDE4B, the IC50 was less than 1000 nM.

As to `COc1ccc2c(Nc3c(Cl)cncc3Cl)cc(=O)[nH]c2c1OCCCC(=O)O` [Example 51, 4-(4-(3,5-dichloropyridin-4-ylamino)-7-methoxy-2-oxo-1,2-dihydroquinolin-8-yloxy)butanoic acid], the solubility in “Solubility Protocol” is no less than 1000 µg/mL. Further, the IC50 at PDE4B is less than 1000 nM.

For `COc1ccc2c(Nc3c(C)cncc3C)cc(=O)[nH]c2c1OCCCn1ccnc1` [Example 77, 8-(3-(1H-imidazol-1-yl)propoxy)-4-(3,5-dimethylpyridin-4-ylamino)-7-methoxyquinolin-2(1H)-one], the solubility in the series “Solubility Protocol” is less than 1000 µg/mL. The IC50 at PDE4B was less than 1000 nM.

Molecule `COc1ccc2c(Nc3c(C)cncc3C)cc(=O)[nH]c2c1OCCCCCCC(=O)O` [Example 74, 7-(4-(3,5-dimethylpyridin-4-ylamino)-7-methoxy-2-oxo-1,2-dihydroquinolin-8-yloxy)heptanoic acid] gave a solubility in the series “Solubility Protocol” of no less than 1000 µg/mL. In addition, on PDE4B, the half-maximal inhibitory concentration (IC50) is less than 1000 nM.

On to `COc1ccc2c(Nc3c(Cl)cncc3Cl)cc(=O)[nH]c2c1OCCCCCCc1nn[nH]n1` [Example 71, 8-(6-(2H-tetrazol-5-yl)hexyloxy)-4-(3,5-dichloropyridin-4-ylamino)-7-methoxyquinolin-2(1H)-one], for which the solubility in the series “Solubility Protocol” is no less than 1000 µg/mL. The IC50 on PDE4B was less than 1000 nM.

For `COc1ccc2c(Nc3c(Cl)cncc3Cl)cc(=O)[nH]c2c1OCCCCC(=O)NCC(=O)O` [Example 94, 2-(5-(4-(3,5-dichloropyridin-4-ylamino)-7-methoxy-2-oxo-1,2-dihydroquinolin-8-yloxy)pentanamido)acetic acid], the IC50 at PDE4B was less than 1000 nM.

On to `COc1ccc2c(Nc3c(Cl)cncc3Cl)cc(=O)[nH]c2c1OCCCCCCNCCO` [Example 29, 4-(3,5-Dichloropyridin-4-ylamino)-8-(6-(2-hydroxyethylamino)hexyloxy)-7-methoxyquinolin-2(1H)-one], for which the solubility in the series “Solubility Protocol” was no less than 1000 µg/mL. For the same molecule, the IC50 on PDE4B was less than 1000 nM.

`COc1ccc2c(Nc3c(Cl)cncc3Cl)cc(=O)[nH]c2c1OCCCCCN1CCN(C)CC1` [Example 47, 4-(3,5-dichloropyridin-4-ylamino)-7-methoxy-8-(5-(4-methylpiperazin-1-yl)pentyloxy)quinolin-2(1H)-one] yielded a solubility in “Solubility Protocol” of no less than 1000 µg/mL. The IC50 at PDE4B was less than 1000 nM.

Turning to `COc1ccc2c(Nc3c(Cl)cncc3Cl)cc(=O)[nH]c2c1OCCCCC(=O)N[C@@H](Cc1c[nH]cn1)C(=O)O` [Example 95, (S)-2-(5-(4-(3,5-dichloropyridin-4-ylamino)-7-methoxy-2-oxo-1,2-dihydroquinolin-8-yloxy)pentanamido)-3-(1H-imidazol-4-yl)propanoic acid], the IC50 at PDE4B was less than 1000 nM.

On to `COc1ccc2c(Nc3c(Cl)cncc3Cl)cc(=O)[nH]c2c1OCCCCCCNC(=N)N` [Example 63, 1-(6-(4-(3,5-dichloropyridin-4-ylamino)-7-methoxy-2-oxo-1,2-dihydroquinolin-8-yloxy)hexyl)guanidine], for which, on PDE4B, the IC50 is less than 1000 nM.

For `COc1ccc2c(Nc3c(C)cncc3C)cc(=O)[nH]c2c1OCCCCCCN1CCN(C)CC1` [Example 34, 4-(3,5-Dimethylpyridin-4-ylamino)-7-methoxy-8-(6-(4-methylpiperazin-1-yl)hexyloxy)quinolin-2(1H)-one], on PDE4B, the IC50 is less than 1000 nM.

In the case of `COc1ccc2c(Nc3c(C)cncc3C)cc(=O)[nH]c2c1OCCCCc1nn[nH]n1` [Example 86, 8-(4-(2H-tetrazol-5-yl)butoxy)-4-(3,5-dimethylpyridin-4-ylamino)-7-methoxyquinolin-2(1H)-one], the 50% inhibitory concentration (IC50) at PDE4B is less than 1000 nM.

In the case of `COc1ccc2c(Nc3c(Cl)cncc3Cl)cc(=O)[nH]c2c1OCCCCCCN(CCO)CCO` [Example 31, 8-(6-(Bis(2-hydroxyethyl)amino)hexyloxy)-4-(3,5-dichloropyridin-4-ylamino)-7-methoxyquinolin-2(1H)-one], the IC50 at PDE4B is less than 1000 nM.

Take `COc1ccc2c(Nc3c(C)cncc3C)cc(=O)[nH]c2c1OCCCCCCO` [Example 84, 4-(3,5-dimethylpyridin-4-ylamino)-8-(6-hydroxyhexyloxy)-7-methoxyquinolin-2(1H)-one]: the IC50 on PDE4B is less than 1000 nM.

As to `COc1ccc2c(Nc3c(Cl)cncc3Cl)cc(=O)[nH]c2c1OCCCCCCN(C)CCN(C)C` [Example 24, 4-(3,5-dichloropyridin-4-ylamino)-8-(6-((2-(dimethylamino)ethyl)(methyl)amino)hexyloxy)-7-methoxyquinolin-2(1H)-one], the IC50 at PDE4B was less than 1000 nM.

Regarding `COc1ccc2c(Nc3c(Cl)cncc3Cl)cc(=O)[nH]c2c1OCCCOCCOCCOCCO` [Example 96, 4-(3,5-dichloropyridin-4-ylamino)-8-(3-(2-(2-(2-hydroxyethoxy)ethoxy)ethoxy)propoxy)-7-methoxyquinolin-2(1H)-one], on PDE4B, the IC50 is less than 1000 nM.

Regarding `COc1ccc2c(Nc3c(C)cncc3C)cc(=O)[nH]c2c1OCCCc1nn[nH]n1` [Example 85, 8-(3-(2H-tetrazol-5-yl)propoxy)-4-(3,5-dimethylpyridin-4-ylamino)-7-methoxyquinolin-2(1H)-one], the IC50 on PDE4B was less than 1000 nM.

As for `COc1ccc2c(Nc3c(C)cncc3C)cc(=O)[nH]c2c1OCCCO` [Example 81, 4-(3,5-dimethylpyridin-4-ylamino)-8-(3-hydroxypropoxy)-7-methoxyquinolin-2(1H)-one], on PDE4B, the IC50 is less than 1000 nM.

In the series “Solubility Protocol”, `COc1ccc2c(Nc3c(C)cncc3C)cc(=O)[nH]c2c1OCC(C)C` [Example 12, 4-(3,5-Dimethylpyridin-4-ylamino)-8-isobutoxy-7-methoxyquinolin-2(1H)-one] registered a solubility of no less than 1000 µg/mL.

For `COc1ccc2c(Nc3c(C)cncc3C)cc(=O)[nH]c2c1OCCCCCc1nn[nH]n1` [Example 87, 8-(5-(2H-tetrazol-5-yl)pentyloxy)-4-(3,5-dimethylpyridin-4-ylamino)-7-methoxyquinolin-2(1H)-one], the IC50 at PDE4B is less than 1000 nM.

With `COCCOCCOCCOCCCOc1c(OC)ccc2c(Nc3c(Cl)cncc3Cl)cc(=O)[nH]c12` [Example 97, 8-(2,5,8,11-tetraoxatetradecan-14-yloxy)-4-(3,5-dichloropyridin-4-ylamino)-7-methoxyquinolin-2(1H)-one], the IC50 on PDE4B is less than 1000 nM.

As to `COc1ccc2c(Nc3c(Cl)cncc3Cl)cc(=O)[nH]c2c1OCCCOCCOCCO` [Example 98, 4-(3,5-dichloropyridin-4-ylamino)-8-(3-(2-(2-hydroxyethoxy)ethoxy)propoxy)-7-methoxyquinolin-2(1H)-one], the IC50 at PDE4B was less than 1000 nM.

Turning to `COc1ccc2c(Nc3c(C)cncc3C)cc(=O)[nH]c2c1OCCCCCCc1nn[nH]n1` [Example 88, 8-(6-(2H-tetrazol-5-yl)hexyloxy)-4-(3,5-dimethylpyridin-4-ylamino)-7-methoxyquinolin-2(1H)-one], the IC50 at PDE4B was less than 1000 nM.

`COc1ccc2c(Nc3c(C)cncc3C)cc(=O)[nH]c2c1OCCCCO` [Example 82, 4-(3,5-dimethylpyridin-4-ylamino)-8-(4-hydroxybutoxy)-7-methoxyquinolin-2(1H)-one]: the half-maximal inhibitory concentration (IC50) on PDE4B was less than 1000 nM.

Take `COc1ccc2c(Nc3c(C)cncc3C)cc(=O)[nH]c2c1OCCCCN(C)C` [Example 44, 8-(4-(dimethylamino)butoxy)-4-(3,5-dimethylpyridin-4-ylamino)-7-methoxyquinolin-2(1H)-one]: the IC50 on PDE4B was less than 1000 nM.

With `CCN1CCN(CCCCCCOc2c(OC)ccc3c(Nc4c(Cl)cncc4Cl)cc(=O)[nH]c23)CC1` [Example 23, 4-(3,5-dichloropyridin-4-ylamino)-8-(6-(4-ethylpiperazin-1-yl)hexyloxy)-7-methoxyquinolin-2(1H)-one], at PDE4B, the IC50 is less than 1000 nM.
